Results from ChEMBL document CHEMBL1208728, “Design, synthesis, and structure-activity relationships of pyrazole derivatives as potential FabH inhibitors” (Bioorg Med Chem Lett, 2010).
≈ marks a conversion by molar mass, not a printed value.

Experiments:
Format in all cases: functional
Bacillus subtilis = experiment: Antimicrobial activity against Bacillus subtilis ATCC 6633 by MTT assay
Staphylococcus aureus = experiment: Antimicrobial activity against Staphylococcus aureus ATCC 6538 by MTT assay
Enterococcus faecalis = experiment: Antimicrobial activity against Streptococcus faecalis ATCC 9790 by MTT assay
Pseudomonas aeruginosa = experiment: Antimicrobial activity against Pseudomonas aeruginosa ATCC 13525 by MTT assay
Escherichia coli = experiment: Antimicrobial activity against Escherichia coli ATCC 35218 by MTT assay
Enterobacter cloacae = experiment: Antimicrobial activity against Enterobacter cloacae ATCC 13047 by MTT assay

SMILES	MIC (Bacillus subtilis) [µg/mL]	MIC (Staphylococcus aureus) [µg/mL]	MIC (Enterococcus faecalis) [µg/mL]	MIC (Pseudomonas aeruginosa) [µg/mL]	MIC (Escherichia coli) [µg/mL]	MIC (Enterobacter cloacae) [µg/mL]
CC(=O)N1N=C(c2ccc(C)c(C)c2)CC1c1ccc(Br)cc1 (stereo not given)	25 (≈ 67.3 µM)	12.6 (≈ 33.9 µM)	50 (≈ 135 µM)	12.5 (≈ 33.7 µM)	25 (≈ 67.3 µM)	3.12 (≈ 8.42 µM)
CC(=O)N1N=C(c2ccc(Br)cc2)CC1c1ccc(Cl)cc1 (stereo not given)	25 (≈ 66.2 µM)	3.12 (≈ 8.27 µM)	6.25 (≈ 16.5 µM)	3.12 (≈ 8.27 µM)	25 (≈ 66.2 µM)	12.5 (≈ 33.1 µM)
CC(=O)N1N=C(c2ccc(Br)cc2)CC1c1ccc(Br)cc1 (stereo not given)	12.5 (≈ 29.6 µM)	3.12 (≈ 7.4 µM)	25 (≈ 59.2 µM)	6.25 (≈ 14.8 µM)	25 (≈ 59.2 µM)	25 (≈ 59.2 µM)
COc1ccc(C2CC(c3ccc(C)c(C)c3)=NN2C(C)=O)cc1 (stereo not given)	12.5 (≈ 38.8 µM)	3.12 (≈ 9.69 µM)	12.5 (≈ 38.8 µM)	3.12 (≈ 9.69 µM)	25 (≈ 77.5 µM)	12.5 (≈ 38.8 µM)
CC(=O)N1N=C(c2ccc(Cl)c(Cl)c2)CC1c1ccccc1 (stereo not given)	6.25 (≈ 18.8 µM)	> 50	12.5 (≈ 37.5 µM)	25 (≈ 75 µM)	12.5 (≈ 37.5 µM)	25 (≈ 75 µM)
COc1cc(OC)cc(C2CC(c3ccc(Cl)cc3)=NN2C(C)=O)c1 (stereo not given)	6.25 (≈ 17.4 µM)	6.25 (≈ 17.4 µM)	50 (≈ 139 µM)	25 (≈ 69.7 µM)	12.5 (≈ 34.8 µM)	> 50
CC(=O)N1N=C(c2ccc(Br)cc2)CC1c1ccccc1 (stereo not given)	50 (≈ 146 µM)	6.25 (≈ 18.2 µM)	25 (≈ 72.8 µM)	12.5 (≈ 36.4 µM)	12.5 (≈ 36.4 µM)	> 50
COc1cc(OC)cc(C2CC(c3ccccc3)=NN2C(C)=O)c1 (stereo not given)	12.5 (≈ 38.5 µM)	25 (≈ 77.1 µM)	25 (≈ 77.1 µM)	25 (≈ 77.1 µM)	25 (≈ 77.1 µM)	> 50
COc1ccc(C2CC(c3ccccc3)=NN2C(C)=O)cc1 (stereo not given)	> 50	12.5 (≈ 42.5 µM)	50 (≈ 170 µM)	12.5 (≈ 42.5 µM)	> 50	> 50
NC[C@H]1O[C@H](O[C@H]2[C@H](O)[C@@H](O[C@H]3O[C@H](CO)[C@@H](O)[C@H](N)[C@H]3O)[C@H](N)C[C@@H]2N)[C@H](N)[C@@H](O)[C@@H]1O [BEKANAMYCIN]	0.39 (≈ 0.807 µM)	3.12 (≈ 6.46 µM)	3.12 (≈ 6.46 µM)	3.12 (≈ 6.46 µM)	1.56 (≈ 3.23 µM)	1.56 (≈ 3.23 µM)
CC(=O)N1N=C(c2ccc(Cl)c(Cl)c2)CC1c1ccccc1Cl (stereo not given)	3.12 (≈ 8.5 µM)	25 (≈ 68 µM)	12.5 (≈ 34 µM)	12.5 (≈ 34 µM)	12.5 (≈ 34 µM)	25 (≈ 68 µM)
COc1cc(OC)cc(C2CC(c3ccc(Cl)c(Cl)c3)=NN2C(C)=O)c1 (stereo not given)	12.5 (≈ 31.8 µM)	25 (≈ 63.6 µM)	50 (≈ 127 µM)	12.5 (≈ 31.8 µM)	> 50	12.5 (≈ 31.8 µM)
CC(=O)N1N=C(c2ccc(C)c(C)c2)CC1c1ccc(Cl)cc1 (stereo not given)	> 50	1.56 (≈ 4.78 µM)	50 (≈ 153 µM)	6.25 (≈ 19.1 µM)	12.5 (≈ 38.2 µM)	6.25 (≈ 19.1 µM)
CC(=O)N1N=C(c2ccc(Br)cc2)CC1c1ccc(F)cc1 (stereo not given)	25 (≈ 69.2 µM)	1.56 (≈ 4.32 µM)	1.56 (≈ 4.32 µM)	3.12 (≈ 8.65 µM)	12.5 (≈ 34.6 µM)	12.5 (≈ 34.6 µM)
CC(=O)N1N=C(c2ccc(C)c(C)c2)CC1c1ccccc1Cl (stereo not given)	> 50	25 (≈ 76.5 µM)	50 (≈ 153 µM)	6.25 (≈ 19.1 µM)	25 (≈ 76.5 µM)	> 50
CC(=O)N1N=C(c2ccc(Cl)c(Cl)c2)CC1c1ccc(Br)cc1 (stereo not given)	1.56 (≈ 3.79 µM)	> 50	3.12 (≈ 7.58 µM)	25 (≈ 60.7 µM)	12.5 (≈ 30.3 µM)	12.5 (≈ 30.3 µM)
COc1cc(OC)cc(C2CC(c3ccc(C)c(C)c3)=NN2C(C)=O)c1 (stereo not given)	12.5 (≈ 35.5 µM)	> 50	12.5 (≈ 35.5 µM)	3.12 (≈ 8.87 µM)	> 50	25 (≈ 70.9 µM)
CC(=O)N1N=C(c2ccc(C)c(C)c2)CC1c1ccc(C)cc1 (stereo not given)	12.5 (≈ 40.8 µM)	3.12 (≈ 10.2 µM)	12.5 (≈ 40.8 µM)	3.12 (≈ 10.2 µM)	> 50	> 50

SMILES	MIC (Bacillus subtilis) [µg/mL]	MIC (Staphylococcus aureus) [µg/mL]	MIC (Enterococcus faecalis) [µg/mL]	MIC (Pseudomonas aeruginosa) [µg/mL]	MIC (Escherichia coli) [µg/mL]	MIC (Enterobacter cloacae) [µg/mL]
CC(=O)N1N=C(c2ccccc2)CC1c1ccc(Br)cc1 (stereo not given)	25 (≈ 72.8 µM)	> 50	12.5 (≈ 36.4 µM)	25 (≈ 72.8 µM)	12.5 (≈ 36.4 µM)	12.5 (≈ 36.4 µM)
CC(=O)N1N=C(c2ccccc2)CC1c1ccc(Cl)cc1 (stereo not given)	> 50	12.5 (≈ 41.8 µM)	12.5 (≈ 41.8 µM)	12.5 (≈ 41.8 µM)	25 (≈ 83.7 µM)	25 (≈ 83.7 µM)
CC(=O)N1N=C(c2ccc(Cl)cc2)CC1c1ccc(C)cc1 (stereo not given)	6.25 (≈ 20 µM)	12.5 (≈ 40 µM)	25 (≈ 79.9 µM)	12.5 (≈ 40 µM)	12.5 (≈ 40 µM)	12.5 (≈ 40 µM)
CC(=O)N1N=C(c2ccccc2F)CC1c1ccc(F)cc1 (stereo not given)	25 (≈ 83.2 µM)	> 50	50 (≈ 166 µM)	12.5 (≈ 41.6 µM)	50 (≈ 166 µM)	> 50
CC(=O)N1N=C(c2ccccc2F)CC1c1ccccc1Cl (stereo not given)	6.25 (≈ 19.7 µM)	12.5 (≈ 39.5 µM)	25 (≈ 78.9 µM)	12.5 (≈ 39.5 µM)	12.5 (≈ 39.5 µM)	12.5 (≈ 39.5 µM)
CC(=O)N1N=C(c2ccc(C)c(C)c2)CC1c1ccccc1 (stereo not given)	> 50	25 (≈ 85.5 µM)	25 (≈ 85.5 µM)	12.5 (≈ 42.8 µM)	> 50	> 50
CC(=O)N1N=C(c2ccc(C)c(C)c2)CC1c1ccc(F)cc1 (stereo not given)	25 (≈ 80.5 µM)	1.56 (≈ 5.03 µM)	12.5 (≈ 40.3 µM)	6.25 (≈ 20.1 µM)	25 (≈ 80.5 µM)	12.5 (≈ 40.3 µM)
CC(=O)N1N=C(c2ccc(Cl)cc2)CC1c1ccccc1Cl (stereo not given)	6.25 (≈ 18.8 µM)	25 (≈ 75 µM)	50 (≈ 150 µM)	12.5 (≈ 37.5 µM)	12.5 (≈ 37.5 µM)	12.5 (≈ 37.5 µM)
COc1ccc(C2CC(c3ccccc3F)=NN2C(C)=O)cc1 (stereo not given)	6.25 (≈ 20 µM)	25 (≈ 80 µM)	12.5 (≈ 40 µM)	25 (≈ 80 µM)	12.5 (≈ 40 µM)	25 (≈ 80 µM)
CC(=O)N1N=C(c2ccccc2)CC1c1ccccc1 (stereo not given)	25 (≈ 94.6 µM)	25 (≈ 94.6 µM)	12.5 (≈ 47.3 µM)	12.5 (≈ 47.3 µM)	25 (≈ 94.6 µM)	12.5 (≈ 47.3 µM)
CC(=O)N1N=C(c2ccccc2F)CC1c1ccc(Cl)cc1 (stereo not given)	12.5 (≈ 39.5 µM)	> 50	12.5 (≈ 39.5 µM)	12.5 (≈ 39.5 µM)	25 (≈ 78.9 µM)	> 50
CC(=O)N1N=C(c2ccccc2F)CC1c1ccc(Br)cc1 (stereo not given)	25 (≈ 69.2 µM)	25 (≈ 69.2 µM)	25 (≈ 69.2 µM)	12.5 (≈ 34.6 µM)	25 (≈ 69.2 µM)	12.5 (≈ 34.6 µM)
CC1(C)S[C@@H]2[C@H](NC(=O)Cc3ccccc3)C(=O)N2[C@H]1C(=O)O [PENICILLIN G]	1.56 (≈ 4.67 µM)	6.25 (≈ 18.7 µM)	1.56 (≈ 4.67 µM)	6.25 (≈ 18.7 µM)	3.12 (≈ 9.35 µM)	3.12 (≈ 9.35 µM)
CC(=O)N1N=C(c2ccccc2F)CC1c1ccccc1 (stereo not given)	12.5 (≈ 44.3 µM)	25 (≈ 88.6 µM)	25 (≈ 88.6 µM)	25 (≈ 88.6 µM)	> 50	> 50
CC(=O)N1N=C(c2ccccc2)CC1c1ccc(F)cc1 (stereo not given)	25 (≈ 88.6 µM)	25 (≈ 88.6 µM)	50 (≈ 177 µM)	12.5 (≈ 44.3 µM)	25 (≈ 88.6 µM)	12.5 (≈ 44.3 µM)
COc1ccc(C2CC(c3ccc(Cl)cc3)=NN2C(C)=O)cc1 (stereo not given)	12.5 (≈ 38 µM)	> 50	25 (≈ 76 µM)	25 (≈ 76 µM)	25 (≈ 76 µM)	> 50
CC(=O)N1N=C(c2ccc(Cl)cc2)CC1c1ccc(F)cc1 (stereo not given)	12.5 (≈ 39.5 µM)	12.5 (≈ 39.5 µM)	1.56 (≈ 4.93 µM)	12.5 (≈ 39.5 µM)	25 (≈ 78.9 µM)	25 (≈ 78.9 µM)
